Data set [1] has as its target WL-Pgp (Trp-less Pgp, all eleven Trps substituted) (Mus musculus, UniProt P21447, W1104Y/W132L/W158Y/W208P/W228M/W311Y/W44H/W694I/W704I/W799Y/W851P). As to the kind of experiment: biochemical. Here is the method:
(§1) The rate of ATP hydrolysis was measured at 37 °C, by an ATPase-linked enzyme assay, in the absence and presence of drugs, and statistical analysis were done as described[74],[79]. For biophysical studies, Pgp was exchanged into SEC buffer (20 mM HEPES pH 7.4, 150 mM NaCl, 10% glycerol, 0.05% DDM,) by size exclusion chromatography (SEC) on Superdex 200 (1 × 30 cm column)[85].

The target of data set [2] is WT Pgp (codon-optimized mouse mdr1a Pgp) (Mus musculus, UniProt P21447). As to the kind of experiment: biochemical. Here is the method:
as §1

The target in data set [3] is T1, W(3Cyto) Pgp (W44H/W132L/W208P/W228M/W311Y/W694I/W704I/W851P) (Mus musculus, UniProt P21447, W132L/W208P/W228M/W311Y/W44H/W694I/W704I/W851P). To be noted: read-out: Km(MgATP), in the presence of 30 μM verapamil.
Procedure: (§2) The rate of ATP hydrolysis was measured at 37 °C, by an ATPase-linked enzyme assay[87], in the absence and presence of drugs, and statistical analysis were done as described[74],[79].
Data set [4] concerns S. cerevisiae JPY201 expressing Pgp variants. The following applies: 30 µM doxorubicin. Here is the method: Cultures of the transformants were screened again for mating efficiency. […] DNA from the 72 unique mutants was again re-transformed into JPY201 yeast cells for more detailed in vivo functional analysis of fungicidal drug resistance and yeast mating efficiency, which were performed essentially as previously described[74],[79],[84].

In data set [5] the target is T1, W(3Cyto) Pgp (W44H/W132L/W208P/W228M/W311Y/W694I/W704I/W851P). As to the kind of experiment: biochemical.
Procedure: as §2
[6] abbreviates: EC50 (concentration required for 50% stimulation of the ATPase activity), WT Pgp, mean ± SD.

Read-outs that look alike come from different tables or passages of the source.

One may read the Km as the concentration of substrate that gives half-maximal velocity.

WL-Pgp (Trp-less Pgp, all eleven Trps substituted), sequence (P21447 whole entry W44H/W132L/W158Y/W208P/W228M/W311Y/W694I/W704I/W799Y/W851P/W1104Y): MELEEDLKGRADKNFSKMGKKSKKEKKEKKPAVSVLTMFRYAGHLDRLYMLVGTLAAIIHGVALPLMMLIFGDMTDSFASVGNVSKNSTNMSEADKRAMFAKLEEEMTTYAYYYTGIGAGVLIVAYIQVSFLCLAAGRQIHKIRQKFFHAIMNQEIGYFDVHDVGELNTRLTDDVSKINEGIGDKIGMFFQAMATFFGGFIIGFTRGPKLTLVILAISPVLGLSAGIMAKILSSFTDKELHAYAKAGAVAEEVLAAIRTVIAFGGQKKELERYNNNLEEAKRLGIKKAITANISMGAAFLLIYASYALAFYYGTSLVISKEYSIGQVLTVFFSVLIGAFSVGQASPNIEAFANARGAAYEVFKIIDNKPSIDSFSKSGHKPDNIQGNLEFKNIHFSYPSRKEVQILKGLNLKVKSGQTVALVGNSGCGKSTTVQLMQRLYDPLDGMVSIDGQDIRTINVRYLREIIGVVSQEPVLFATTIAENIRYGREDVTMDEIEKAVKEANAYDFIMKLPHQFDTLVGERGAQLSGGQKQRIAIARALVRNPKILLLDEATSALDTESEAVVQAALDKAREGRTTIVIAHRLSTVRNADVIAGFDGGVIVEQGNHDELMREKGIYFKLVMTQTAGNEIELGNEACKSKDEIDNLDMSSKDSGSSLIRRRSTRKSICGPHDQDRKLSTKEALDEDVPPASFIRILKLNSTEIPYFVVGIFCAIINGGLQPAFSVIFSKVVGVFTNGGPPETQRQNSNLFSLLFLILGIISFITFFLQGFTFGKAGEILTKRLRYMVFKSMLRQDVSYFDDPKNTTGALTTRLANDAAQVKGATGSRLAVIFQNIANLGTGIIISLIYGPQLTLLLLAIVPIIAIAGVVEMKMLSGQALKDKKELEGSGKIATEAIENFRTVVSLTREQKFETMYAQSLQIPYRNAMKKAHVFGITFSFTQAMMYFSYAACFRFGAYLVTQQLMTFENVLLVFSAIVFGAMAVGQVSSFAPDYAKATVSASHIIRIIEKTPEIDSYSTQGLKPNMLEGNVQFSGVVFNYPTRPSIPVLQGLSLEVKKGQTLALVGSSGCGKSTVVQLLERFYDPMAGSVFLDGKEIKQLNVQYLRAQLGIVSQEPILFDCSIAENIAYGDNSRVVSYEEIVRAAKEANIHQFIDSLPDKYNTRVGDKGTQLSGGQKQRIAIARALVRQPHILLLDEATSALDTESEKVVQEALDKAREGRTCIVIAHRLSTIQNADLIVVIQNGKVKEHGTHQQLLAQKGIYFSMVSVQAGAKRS
WT Pgp (codon-optimized mouse mdr1a Pgp), sequence (P21447 whole entry): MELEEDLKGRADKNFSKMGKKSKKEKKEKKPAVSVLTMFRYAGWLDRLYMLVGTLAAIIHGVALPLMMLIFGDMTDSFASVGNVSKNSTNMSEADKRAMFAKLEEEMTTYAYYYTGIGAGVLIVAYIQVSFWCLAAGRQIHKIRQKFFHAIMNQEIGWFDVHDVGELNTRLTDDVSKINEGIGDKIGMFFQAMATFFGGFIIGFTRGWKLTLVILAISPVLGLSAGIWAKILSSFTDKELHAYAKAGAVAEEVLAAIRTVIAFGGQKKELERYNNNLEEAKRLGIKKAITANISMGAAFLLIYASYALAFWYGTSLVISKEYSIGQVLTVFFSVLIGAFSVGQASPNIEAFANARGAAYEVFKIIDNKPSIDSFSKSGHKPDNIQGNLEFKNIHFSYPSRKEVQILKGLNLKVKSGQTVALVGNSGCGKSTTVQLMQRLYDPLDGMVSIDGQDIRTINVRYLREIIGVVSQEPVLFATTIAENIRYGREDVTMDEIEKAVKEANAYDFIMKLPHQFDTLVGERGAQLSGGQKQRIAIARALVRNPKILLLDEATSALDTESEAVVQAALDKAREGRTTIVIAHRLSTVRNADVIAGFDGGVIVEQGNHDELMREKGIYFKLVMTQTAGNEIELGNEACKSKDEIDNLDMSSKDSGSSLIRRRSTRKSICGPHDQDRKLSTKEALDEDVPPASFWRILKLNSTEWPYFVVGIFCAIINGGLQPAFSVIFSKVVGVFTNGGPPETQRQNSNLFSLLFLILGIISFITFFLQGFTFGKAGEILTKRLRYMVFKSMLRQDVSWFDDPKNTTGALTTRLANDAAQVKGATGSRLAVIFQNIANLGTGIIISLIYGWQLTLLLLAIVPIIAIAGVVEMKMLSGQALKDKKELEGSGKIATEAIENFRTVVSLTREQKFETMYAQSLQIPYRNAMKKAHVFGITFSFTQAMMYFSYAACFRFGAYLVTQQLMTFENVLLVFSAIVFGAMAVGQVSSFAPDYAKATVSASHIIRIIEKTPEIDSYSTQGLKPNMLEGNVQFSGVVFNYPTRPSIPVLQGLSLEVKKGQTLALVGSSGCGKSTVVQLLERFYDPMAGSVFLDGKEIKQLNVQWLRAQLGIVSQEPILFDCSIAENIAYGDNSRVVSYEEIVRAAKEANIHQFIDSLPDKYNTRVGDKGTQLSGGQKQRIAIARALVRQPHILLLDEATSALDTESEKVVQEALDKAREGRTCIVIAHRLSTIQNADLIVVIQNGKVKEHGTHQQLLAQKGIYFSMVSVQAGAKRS
T1 sequence (P21447 whole entry W44H/W132L/W208P/W228M/W311Y/W694I/W704I/W851P): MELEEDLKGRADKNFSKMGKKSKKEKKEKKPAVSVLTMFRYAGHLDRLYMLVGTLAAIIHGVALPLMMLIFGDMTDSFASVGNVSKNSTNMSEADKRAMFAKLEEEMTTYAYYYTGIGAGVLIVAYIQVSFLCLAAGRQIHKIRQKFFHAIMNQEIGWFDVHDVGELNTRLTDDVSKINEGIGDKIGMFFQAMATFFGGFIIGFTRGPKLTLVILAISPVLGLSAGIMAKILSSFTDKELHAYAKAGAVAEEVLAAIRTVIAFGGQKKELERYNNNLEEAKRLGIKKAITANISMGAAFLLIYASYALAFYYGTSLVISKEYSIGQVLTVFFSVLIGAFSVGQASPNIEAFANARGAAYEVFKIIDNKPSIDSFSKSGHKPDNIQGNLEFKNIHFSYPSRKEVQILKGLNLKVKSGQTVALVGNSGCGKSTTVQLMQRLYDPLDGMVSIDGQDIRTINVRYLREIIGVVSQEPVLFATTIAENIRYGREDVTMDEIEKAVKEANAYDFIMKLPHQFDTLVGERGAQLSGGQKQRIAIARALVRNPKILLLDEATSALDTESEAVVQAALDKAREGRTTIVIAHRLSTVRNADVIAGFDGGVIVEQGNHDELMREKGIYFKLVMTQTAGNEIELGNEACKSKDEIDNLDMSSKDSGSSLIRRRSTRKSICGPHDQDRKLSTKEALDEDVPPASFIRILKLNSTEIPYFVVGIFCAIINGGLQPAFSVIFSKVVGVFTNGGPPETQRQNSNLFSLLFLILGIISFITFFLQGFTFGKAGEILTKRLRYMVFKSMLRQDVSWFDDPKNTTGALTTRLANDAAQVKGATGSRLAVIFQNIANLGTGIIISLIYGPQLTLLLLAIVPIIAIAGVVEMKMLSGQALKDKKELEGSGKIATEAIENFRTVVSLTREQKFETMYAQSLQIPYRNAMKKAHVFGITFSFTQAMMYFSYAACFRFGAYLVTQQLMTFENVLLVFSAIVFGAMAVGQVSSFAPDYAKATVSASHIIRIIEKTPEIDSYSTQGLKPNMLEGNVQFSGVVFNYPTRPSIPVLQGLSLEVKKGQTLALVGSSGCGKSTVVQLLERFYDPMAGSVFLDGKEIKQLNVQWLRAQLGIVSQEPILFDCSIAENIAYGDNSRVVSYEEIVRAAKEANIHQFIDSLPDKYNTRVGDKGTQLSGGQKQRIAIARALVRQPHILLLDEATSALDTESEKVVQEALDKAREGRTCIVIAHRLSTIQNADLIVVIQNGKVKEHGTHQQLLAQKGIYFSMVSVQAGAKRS

Regarding `Nc1ncnc2c1ncn2[C@@H]1O[C@H](COP(=O)(O)OP(=O)(O)OP(=O)(O)O)[C@@H](O)[C@H]1O` [MgATP], the Km in data set [1] (read-out: Km(MgATP), WL-Pgp, in the presence of 30 μM verapamil, text says mM range) came to 0.65 ± 0.07 mM; in data set [2] (read-out: Km(MgATP), WT Pgp, in the presence of 30 μM verapamil, text says mM range) it was 0.75 ± 0.2 mM; in data set [3] it was 400 ± 70 µM.
For `COc1cccc2c1C(=O)c1c(O)c3c(c(O)c1C2=O)C[C@@](O)(C(=O)CO)C[C@@H]3O[C@H]1C[C@H](N)[C@H](O)[C@H](C)O1` [doxorubicin], the “Resistance to doxorubicin (relative to Wt Pgp)” value in data set [4] (yeast expressing mutant B (W(3Cyto))) turned out to be 52 ± 14%; in data set [4] (yeast expressing mutant C (eight TMD Trps replaced)), 43 ± 13%.
In the case of `C=CC[C@@H]1/C=C(\C)C[C@H](C)C[C@H](OC)[C@H]2O[C@@](O)(C(=O)C(=O)N3CCCC[C@H]3C(=O)O[C@H](/C(C)=C/[C@@H]3CC[C@@H](O)[C@H](OC)C3)[C@H](C)[C@@H](O)CC1=O)[C@H](C)C[C@@H]2OC` [FK506], the figures for the EC50 in data set [5], in data set [1] and in data set [2] (setting [6]) were 140 ± 30 nM, 160 ± 40 nM and 84 ± 30 nM, respectively.
On to `CC(C)[C@@H]1NC(=O)[C@H](C)OC(=O)[C@@H](C(C)C)NC(=O)[C@@H](C(C)C)OC(=O)[C@H](C(C)C)NC(=O)[C@H](C)OC(=O)[C@@H](C(C)C)NC(=O)[C@@H](C(C)C)OC(=O)[C@H](C(C)C)NC(=O)[C@H](C)OC(=O)[C@@H](C(C)C)NC(=O)[C@@H](C(C)C)OC1=O` [Valinomycin, valinomycin], for which the EC50 was 230 ± 30 nM in data set [5]; 340 ± 90 nM in data set [1]; roughly 300 nM in data set [2] (50% stimulation (EC50) of ATPase function, text summary across Wt Pgp, W(3Cyto) and WL-Pgp); 330 ± 80 nM in data set [2] (setting [6]).

The values are drawn from publication PMC7035247 (Scientific Reports, 2020).
